Test results: ChEMBL document CHEMBL1122920, “Synthesis and pharmacological evaluation of cis-2,3,3a,4,5,6,7,7a-octahydro-3-oxoisoxazolo[5,4-c]pyridine: a structural analogue of the GABA agonist THIP” (J Med Chem, 1985)

Key:
Mus musculus = experiment: Tested for the antagonism of bicuculline -induced convulsions in female mice intraperitoneally; type: functional; conditions: ip, read-out: ID50 (the source's name)
[1] = molecular target: GABA-A receptor; anion channel; experiment: Displacement of [3H]- muscimol in cerebellar tissue of male rats
Rattus norvegicus = species: Rattus norvegicus; experiment: Tested for its GABA agonistic activity against spontaneous firing in explants from cerebellum of 2-4 day old rats; type: functional

Row | SMILES | ED50 (Mus musculus) | IC50 [1] | Decrease of spontaneous firing rate (Rattus norvegicus)
1 | O=C1NOC2CNCCC12 (cis isomer) | > 56 mg/kg | > 1000 nM | 
2 | Oc1noc2c1CCNC2 [GABOXADOL] | 1.9 mg/kg |  | 
3 | NCc1cc(O)no1 [MUSCIMOL] | 0.76 mg/kg | 3 nM | >=1e-06 M
